These results are taken from US20090137579A1, “Mesylate salt of an IKK inhibitor” (Millennium Pharmaceuticals, Inc., priority 2007, published 2009).

What is called solubility is the concentration that dissolves in the medium under given conditions.

Each structure is given as a SMILES string. Converted amounts (≈) assume the structure as drawn. Counter-ions that a name gives are not always drawn. Like-named read-outs stand apart in the source and are kept apart here.

The nature of data set [1]: Water solubility (equilibrium solubility at ambient temperature). The data set is classed as physicochemical. The protocol: The water solubility of Mesylate Salt Form 1 was measured at ambient temperature. Table 6 is a summary of the equilibrium solubility.
Data set [2] is described as follows: Gravimetric vapor sorption (GVS), hygroscopicity. The class given is physicochemical. The protocol: Gravimetric vapor sorption (GVS) data are collected using a SGA-100 Water Vapor Sorption Analyzer from VTI Corporation. Sample sizes are typically 10 mg. A moisture adsorption/desorption isotherm is recorded by subjecting samples to a series of relative humidity (RH) steps.

With `C[C@@H]1CN(C(=O)CN2CC(C)(C)OC[C@H]2C(=O)Nc2cc(Cl)cc3c2[nH]c2cnccc23)C[C@H](C)O1` [free base, (S)—N-(6-chloro-9H-pyrido[3,4-b]indol-8-yl)-4-(2-((2S,6R)-2,6-dimethylmorpholino)-2-oxoethyl)-6,6-dimethylmorpholine-3-carboxamide], the solubility is about 10 µg/mL (≈ 19.5 µM) in data set [1] (in water, crystalline free base, read-out: solubility) and about 10 µg/mL (≈ 19.5 µM) in data set [1] (water, free base, read-out: intrinsic solubility).
Take `C[C@@H]1CN(C(=O)CN2CC(C)(C)OC[C@H]2C(=O)Nc2cc(Cl)cc3c2[nH]c2cnccc23)C[C@H](C)O1` [Mesylate Form 1, (S)—N-(6-chloro-9H-pyrido[3,4-b]indol-8-yl)-4-(2-((2S,6R)-2,6-dimethylmorpholino)-2-oxoethyl)-6,6-dimethylmorpholine-3-carboxamide Mesylate Form 1]: the “uptake (vapor sorption)” value in data set [2] (at 70% relative humidity (RH)) came out at 1.5%; in data set [2] (at 90% RH), 3.4%. The solubility in data set [1] (pH 2.52, thermodynamic from solid, water, ambient temperature, equilibrium solubility, read-out: Solubility) was over 360000 µg/mL; in data set [1] (thermodynamic from solid, in water, crystalline Form 1, read-out: solubility), over 360000 µg/mL. In data set [1] (pH printed beside the equilibrium water solubility), this compound yielded a pH of 2.52.
